Results: PubChem BioAssay AID2060620 (Molecular Pharmacology Branch, DTP, NCI, 2025)
“And” between values parts separate entries of the source, which are not always exact repeats. Equal entries are not always repeated.

System: 328373-195-R-J1-PDC complex spheroids, viability % test/control
Assay: Anticancer human tumor 328373-195-R-J1-PDC patient-derived head and neck squamous carcinoma cell line growth inhibition [CLK]
Conditions: for viability, T/C: stronger effect = lower value
Description: A high-throughput screen of multi-cell type tumor spheroids was designed to identify active combinations of […] and targeted small molecules. Complex spheroids include a stromal component modeled by human endothelial cells (HUVEC) and fibroblasts modeled by human mesenchymal stem cells (MSCs). The concentration ranges selected for each drug and investigational agent were based upon clinically achievable concentrations if the clinical Cmax of the agent was known.
Compounds. The drugs and investigational agents: cirtuvivint (SM08502; NSC835563), CC-671 (NSC850746), vemurafenib (NSC761431), tapotoclax (NSC804041), sotorasib (NSC818433), adagrasib (NSC831453), MRTX-1133 (NSC836407), BAY2416964 (NSC825713), copanlisib (NSC816437), inavolisib (NSC800729), abemaciclib (NSC768073), osimertinib (NSC779217), entinostat (NSC756642), eltanexor (KPT-8602, NSC794443), venetoclax (NSC766270), ceralasertib (NSC777638), bortezomib (NSC756655), olaparib (NSC753686), talazoparib (NSC767125), alisertib (NSC759677), peposertib (NSC802822), gemcitabine (NSC613327), 5-fluorouracil (NSC19893), SN-38 (NSC673596), oxaliplatin (NSC266046), paclitaxel (NSC125973), and doxorubicin (NSC123127), were obtained from the National Cancer Institute (NCI) Developmental Therapeutics Program Chemical Repository. The FDA-approved anticancer drug set is available from the Developmental Therapeutics Program at https://dtp.cancer.gov/organization/dscb/obtaining/available plates.htm. […] The stock solutions were prepared in dimethyl sulfoxide (DMSO, Sigma-Aldrich, St. Louis, MO, cat. D2650), except for the platinum complexes which were prepared in saline (Quality Biological, Gaithersburg, MD, cat. 114-055-101), at 800-fold the tested concentration and stored at -70 degrees C prior to their use. All drugs and investigational agents were tested over a range starting from a high concentration at or near the clinical Cmax and decreasing in half-log increments. If the clinical Cmax for an agent had not been determined, the highest concentration tested was 10 microM.
Cell Culture. All cells were maintained in an incubator at 37 degrees C and 5% CO2 with 95% humidity. The PDC lines were cultured according to standard operating procedures established by the NCI PDMR. Briefly, all PDCs were thawed and cultured in Matrigel-coated flasks prepared with a working solution of 1X Ham's F-12 nutrient mix, without supplementation (Invitrogen, Waltham, MA, cat. 11765054), 100 U/mL penicillin-streptomycin (Invitrogen, cat. 15140122), and 2.5% Matrigel (Corning Inc., Corning, NY, cat. 354248) for the first three passages. The 947758-054-R-J2-PDC line was cultured in 6B/Colon 1A media, which includes advanced DMEM/F-12 (Thermo Fisher Scientific, cat. 12634028), 10 mM HEPES (Thermo Fisher Scientific, cat. 15630080), 1X GlutaMAX supplement (Thermo Fisher Scientific, cat. 35050061), 0.1 mg/mL primocin (InvivoGen, cat. ant-pm-2), 10% defined fetal bovine serum, heat inactivated (HyClone Laboratories Inc., cat. SH30070.03HI), 1.25 mM N-Acetyl-L-cysteine (Sigma-Aldrich, cat. A9165), 10 mM nicotinamide (Sigma-Aldrich, cat. N0636), 1X B-27 supplement (Thermo Fisher Scientific, cat. 17504044), 1X N-2 supplement (Thermo Fisher Scientific, cat. 17502048), and 10 microM Y-27632 dihydrochloride (Tocris Bioscience, cat. 1254). The 876862-298-R-J1-PDC was cultured in 6E media, which includes all 6B/Colon 1A media components plus 50% L-WRN conditioned media (ATCC, cat. CRL-3276), 50 ng/mL recombinant human EGF recombinant protein (hEGF; Thermo Fisher Scientific, cat. PHG0311), 10 ng/mL recombinant human fibroblast growth factor 10 (hGFG-10; PeproTech, cat. 100-26), 1 ng/mL recombinant human fibroblast growth factor 2 (hFGF-2; PeproTech, cat. 100-18B), and 1 µM prostaglandin E2 (PGE2; Tocris, cat. 2296). The 227483-062-R1-J1-PDC line was cultured in Panc media, containing all 6E components except hFGF-2, with the addition of 500 nM SB-431542 (Selleckchem, cat. S1067) and 10 nM gastrin (Tocris, cat. 3006). […]
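Also: spheroids exposed to the agents for 7 days.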

Row | SMILES | viability, T/C (compound 0.0316 µM) | viability, T/C (compound 0.1 µM) | viability, T/C (compound 0.316 µM) | viability, T/C (compound 1 µM) | viability, T/C (compound 3.16 µM) | viability, T/C (compound 10 µM) | IC50 (curve of compound) | other results
1 | C#Cc1c(F)ccc2cc(O)cc(-c3ncc4c(N5CC6CCC(C5)N6)nc(OCC56CCCN5CC(F)C6)nc4c3F)c12 (stereo not drawn) | 99.7% and 97.3% | 85.4% and 93.6% | 108% and 98.6% | 96.1% and 92.8% | 118% and 111% | 89.6% and 94.6% | > 10 µM | –
2 | C=C(F)C(=O)N1CCN(c2nc(OCC3CCCN3C)nc3c2CCN(c2cccc4cccc(Cl)c24)C3)CC1CC#N (stereo not drawn) | 94.1% and 94.7% | 89.7% and 93.1% | 77.7% and 114% | 90.5% and 84.6% | 53.7% and 59.2% | 0.17% and 3% | 3.42 µM and 3.75 µM | –
3 | C=CC(=O)N1CCN(c2nc(=O)n(-c3c(C)ccnc3C(C)C)c3nc(-c4c(O)cccc4F)c(F)cc23)C(C)C1 (stereo not drawn) | 84.3% and 93.1% | 89.4% and 95.1% | 93.2% and 106% | 98.8% and 87.5% | 96.5% and 100% | 77.4% and 74.5% | > 10 µM | –
4 | C=CC(=O)Nc1cc(Nc2nccc(-c3cn(C)c4ccccc34)n2)c(OC)cc1N(C)CCN(C)C | – | – | – | – | – | – | > 0.3 µM | viability, T/C (compound 0.000949 µM): 97.9% and 96%; viability, T/C (compound 0.003 µM): 96.8% and 91.2%; viability, T/C (compound 0.00949 µM): 94% and 91.6%; viability, T/C (compound 0.03 µM): 94.2% and 92.4%; viability, T/C (compound 0.0949 µM): 83.8% and 91.1%; viability, T/C (compound 0.3 µM): 91.3% and 84.8%
5 | CC(=O)O[C@H]1C(=O)[C@@]2(C)[C@H]([C@H](OC(=O)c3ccccc3)[C@]3(O)C[C@H](OC(=O)[C@H](O)[C@@H](NC(=O)c4ccccc4)c4ccccc4)C(C)=C1C3(C)C)[C@]1(OC(C)=O)CO[C@@H]1C[C@@H]2O | 10.2% and 4.45% | 5.56% and 4.34% | 5.87% and 5.98% | 10.8% and 8.33% | 14.6% and 9.57% | 14.7% and 10.1% | < 0.0316 µM | –
6 | CC(C)CC(NC(=O)C(Cc1ccccc1)NC(=O)c1cnccn1)B(O)O (stereo not drawn) | – | – | – | – | – | – | 0.00176 µM and 0.00186 µM | viability, T/C (compound 0.000949 µM): 97.8% and 115%; viability, T/C (compound 0.003 µM): 8.65% and 3.9%; viability, T/C (compound 0.00949 µM): 1.43% and 0.2%; viability, T/C (compound 0.03 µM): 1.56% and 0.3%; viability, T/C (compound 0.0949 µM): 0.16%; viability, T/C (compound 0.3 µM): 0.85% and 0.2%
7 | CC(CO)NC(=O)c1cc(-c2ccc(Cl)cc2)nn(-c2cnn(C)c2)c1=O (stereo not drawn) | 101% and 99.6% | 105% and 97% | 105% and 113% | 112% and 109% | 112% and 119% | 88.7% and 91.8% | > 10 µM | –
8 | CC(Nc1ccc2c(c1)OCCn1cc(N3C(=O)OCC3C(F)F)nc1-2)C(N)=O (stereo not drawn) | 86% and 91.1% | 76.5% and 86.9% | 77.7% and 75.1% | 73.9% and 78.2% | 53.4% and 56.5% | 40% and 44.6% | 4.34 µM and 6.46 µM | –
9 | CC1(C)CCC(CN2CCN(c3ccc(C(=O)NS(=O)(=O)c4ccc(NCC5CCOCC5)c([N+](=O)[O-])c4)c(Oc4cnc5[nH]ccc5c4)c3)CC2)=C(c2ccc(Cl)cc2)C1 | 103% and 85% | 88.8% and 76.7% | 95.1% and 98.1% | 90% and 84% | 81.7% and 74.5% | 25.7% and 8.47% | 6.04 µM and 4.85 µM | –
10 | CC1COCCN1c1cc(C2(S(C)(=N)=O)CC2)nc(-c2ccnc3[nH]ccc23)n1 (stereo not drawn) | 99.7% and 95.9% | 91.5% and 81.3% | 88.8% and 91.9% | 70.2% and 70% | 29.4% and 27.2% | 9.11% and 6.62% | 1.76 µM and 1.73 µM | –
11 | CCCS(=O)(=O)Nc1ccc(F)c(C(=O)c2c[nH]c3ncc(-c4ccc(Cl)cc4)cc23)c1F | 99.5% and 99.4% | 91.2% and 92.6% | 92.8% and 95.1% | 91.2% and 83.6% | 92.6% and 94.8% | 82.3% and 109% | > 10 µM | –
12 | CCN1CCN(Cc2ccc(Nc3ncc(F)c(-c4cc(F)c5nc(C)n(C(C)C)c5c4)n3)nc2)CC1 | 82.7% and 83.1% | 77.4% and 78.6% | 64.9% and 69.7% | 59.8% and 52.3% | – | – | > 1 µM | viability, T/C (compound 0.00316 µM): 101% and 89.8%; viability, T/C (compound 0.01 µM): 77.4% and 78.7%
13 | CCc1c2c(nc3ccc(O)cc13)-c1cc3c(c(=O)n1C2)COC(=O)[C@]3(O)CC | 1.41% and 1.91% | 3.19% and 1.33% | 1.53% and 0.43% | 2.07% and 1.46% | – | – | < 0.00316 µM | viability, T/C (compound 0.00316 µM): 12.7% and 12.1%; viability, T/C (compound 0.01 µM): 3.27% and 1.07%
14 | CN1CCN(c2cc(C(=O)Nc3cc4cc(-c5cnn(C)c5)ccc4cn3)ccn2)CC1 | 102% [middle of 12 runs] | 87.1% [middle of 12 runs] | 30.6% [middle of 12 runs] | 2.6% [middle of 12 runs] | 1.02% [middle of 12 runs] | 0.18% [middle of 11 runs] | – | IC50 (compound alone, run of 08/14/2023): 209 nM [middle of 12 runs]
15 | COC1C=CCC(C)C(C)S(=O)(=O)NC(=O)c2ccc3c(c2)N(CC2CCC21)CC1(CCCc2cc(Cl)ccc21)CO3 (stereo not drawn) | 93.3% and 98.1% | 90.6% and 96.7% | 101% and 103% | 96.7% and 93.2% | 77.2% and 69.3% | – | 8.47 µM and 4.4 µM | –
16 | COc1c(OCCCN2CCOCC2)ccc2c3n(c(=NC(=O)c4cnc(N)nc4)nc12)CCN3 | 64.5% and 74.9% | 51.9% and 66.5% | 19.2% and 24.7% | 10.7% and 7.66% | – | – | 0.0801 µM and 0.152 µM | viability, T/C (compound 0.00316 µM): 98.7% and 88.6%; viability, T/C (compound 0.01 µM): 87.2% and 84.5%
17 | Cn1ncnc1[C@H]1c2n[nH]c(=O)c3cc(F)cc(c23)N[C@@H]1c1ccc(F)cc1 | 95.3% and 107% | 73% and 77.7% | – | – | – | – | > 0.1 µM | viability, T/C (compound 0.000316 µM): 98.5% and 113%; viability, T/C (compound 0.001 µM): 72.2% and 90.1%; viability, T/C (compound 0.00316 µM): 90.6% and 93.4%; viability, T/C (compound 0.01 µM): 84.6% and 92.9%
18 | NC(=O)C(=Cn1cnc(-c2cc(C(F)(F)F)cc(C(F)(F)F)c2)n1)c1cncnc1 | – | – | – | – | – | – | 0.0211 µM and 0.0198 µM | viability, T/C (compound 0.00949 µM): 76.3% and 71.8%; viability, T/C (compound 0.03 µM): 38.3% and 37.8%; viability, T/C (compound 0.0949 µM): 2.22% and 0.66%; viability, T/C (compound 0.3 µM): 1.05% and 0.37%; viability, T/C (compound 0.949 µM): 0.16% and 0.11%; viability, T/C (compound 3 µM): 1.51% and 0.06%
19 | Nc1ccccc1NC(=O)c1ccc(CNC(=O)OCc2cccnc2)cc1 | 87.1% and 84.6% | 71.8% and 68.4% | 54.6% and 49.4% | 38.6% and 28.9% | 31.2% and 21.1% | 7.32% and 4.87% | 0.515 µM and 0.299 µM | –
20 | Nc1ccn(C2OC(CO)C(O)C2(F)F)c(=O)n1 (stereo not drawn) | 4.83% and 1.9% | 2.69% and 2.98% | 2.89% and 2.37% | 2.8% and 3.02% | 2.26% and 2.69% | 2.3% and 1.66% | < 0.0316 µM | –
21 | O=C(c1cc(Cc2n[nH]c(=O)c3ccccc23)ccc1F)N1CCN(C(=O)C2CC2)CC1 | 99.6% and 98.6% | 94.2% and 88% | 91.3% and 90.8% | 87.9% and 100% | 93.2% and 101% | 73.2% and 66.8% | > 10 µM | –
22 | O=c1[nH]cc(F)c(=O)[nH]1 | 54% and 64.5% | 14.5% and 17.4% | 11.9% and 9.36% | 6.67% and 7.09% | 8.84% and 8.77% | 14.9% and 15.6% | 0.0356 µM and 0.0449 µM | –
